Values quoted from earlier work, collected in PMC5346970 (Journal of Medicinal Chemistry, 2017).
“And” between values parts separate entries of the source, which are not always exact repeats. Identical values can stand only once. Like-named read-outs stand apart in the source and are kept apart here.

Experiments:
[1] = for conjugate level in blood: 3.6 g daily dose, all six subjects
Alzheimer’s disease = conditions: for mean baseline plasma level at 24 weeks / mean plasma level three hours post-treatment: LC/MS/MS; for mean plasma level three hours post-treatment: 24 weeks
GSK-3β = conditions: no DTT, 30–90 min incubation
[2] = system: cannabinoid receptor 1 (CB1); conditions: repeated experiments after retraction
[3] = synthetic 1, rats
[4] = system: murine macrophage cells, J774.1; conditions: read-out: cytotoxicity IC50; murine macrophage cell line
[5] = depending on solvent and method
[6] = system: advanced pancreatic cancer; conditions: 8 g/day oral, steady state on day 3
[7] = mice fed diets poor in iron
[8] = system: amyloid-β (Aβ) fibril formation; conditions: ThT assay
[9] = room temperature, neutral pH
CB2 = conditions: repeated experiments after retraction
Aβ = conditions: transmission electron microscopy, in vitro
[10] = system: SERCA (sarcoplasmic/endoplasmic reticulum calcium) pump; conditions: previously reported
HAT Gcn5 = conditions: in vitro
[11] = system: histone methyltransferase G9a; conditions: counterscreen
mutant CFTR (ΔF508 mice) = conditions: 45 mg kg^–1 day^–1 oral; not reproduced by independent lab (ref 139)
[12] = at 2 h, one individual, single 12 g oral dose

Q: With O=S(=O)(O)O [Sulfate] as the compound, how does the “conjugate level in blood” value [1] read?
A: The value was 8.9 ± 0.7 nmol/L.

Q: With COc1cc(CCC(=O)CC(=O)CCc2ccc(O)c(OC)c2)ccc1O [tetrahydrocurcumin] as the compound, how does the “mean baseline plasma level at 24 weeks” value (Alzheimer’s disease) read?
A: The value was 6.86 ± 1.69 ng/mL.

Q: And the “mean plasma level three hours post-treatment” value (Alzheimer’s disease)?
A: The value was 3.73 ± 2.0 ng/mL.

Q: With COc1cc(CCC(=O)CC(=O)CCc2ccc(OC3OC(C(=O)O)C(O)C(O)C3O)c(OC)c2)ccc1O (centres unmarked) [glucuronidated tetrahydrocurcumin] as the compound, how does the “mean plasma level three hours post-treatment” value (Alzheimer’s disease) read?
A: The value was 298.2 ± 140.0 ng/mL.

Q: With COc1cc(/C=C/C(=O)CC(=O)/C=C/c2ccc(O[C@@H]3O[C@H](C(=O)O)[C@@H](O)[C@H](O)[C@H]3O)c(OC)c2)ccc1O [glucuronidated 1] as the compound, how does the “conjugate level in blood” value [1] read?
A: Its value is 15.8 ± 0.9 nmol/L.

Q: What about the “mean plasma level three hours post-treatment” value (Alzheimer’s disease) of the same compound?
A: The value was 96.05 ± 26 ng/mL.

Q: For “(1E,6E)-1,7-bis(4-hydroxy-3-methoxyphenyl)-1,6-heptadiene-3,5-dione [Compound 1]”, which IC50 (malate dehydrogenase; with Triton X-100) is on record?
A: Its IC50 is greater than 30 µM.

Q: What about the IC50 (malate dehydrogenase; without Triton X-100) of the same compound?
A: Its IC50 is 9 µM.

Q: And the IC50 (GSK-3β)?
A: Its IC50 is 0.066 µM.

Q: And the “inhibition of CB1” value [2]?
A: The value was “low micromolar inhibitor”.

Q: What about the “level in blood as reported” value ([1]; 3.6 g daily, 1 h time point) of the same compound?
A: Its value is 0.6 nM.

Q: And the oral bioavailability [3]?
A: Its oral bioavailability is “less than 1%”.

Q: And the IC50 [4]?
A: The IC50 was 31 µM.

Q: And the “pKa, first phenolic proton” value [5]?
A: Its value is 8.5–10.4.

Q: And the “pKa, second phenolic proton” value [5]?
A: The value was 9.5–10.7.

Q: What about the plasma level [6] of the same compound?
A: Its plasma level is 22 to 41 ng/mL.

Q: What about the “activity versus PCAF” value (HAT PCAF; counterscreen) of the same compound?
A: The value was “failed to show any activity”.

Q: What about the “inhibition of PCAF” value (HAT PCAF; in vitro) of the same compound?
A: Its value is “failed to inhibit”.

Q: And the iron status [7]?
A: The iron status was “inducing a state of overt iron deficiency”.

Q: And the IC50 [8]?
A: Its IC50 is 1 to 64 µM.

Q: And the solubility in water [9]?
A: Its solubility in water is “practically insoluble”.

Q: And the “solubility in water (estimate)” value ([9]; confounded by aggregation)?
A: The value was 1 to 10 µg/mL.

Q: And the “t1/2 for loss of parent compound” value (pH 7.5, rt, aqueous buffer)?
A: The value was “approximately 20 min”.

Q: And the “reduction in parent material” value (samples prepared in clear versus amber glass)?
A: Its value is 5%.

Q: What about the compound degradation (solvolysis in aqueous alkaline buffer, within 30 min) of the same compound?
A: Its compound degradation is 90%.

Q: What about the “mean baseline plasma level at 24 weeks” value (Alzheimer’s disease) of the same compound?
A: The value was 2.67 ± 1.69 ng/mL.

Q: And the “mean plasma level three hours post-treatment” value (Alzheimer’s disease)?
A: Its value is 7.76 ± 3.23 ng/mL.

Q: And the “plasma level by HPLC” value (Alzheimer’s disease; one sample, 4 h after a 4 g dose, below assay LLOD)?
A: The value was 6 ng/mL.

Q: What about the “activity in FP secondary screen” value (tau fibril formation) of the same compound?
A: The value was “inactive”.

Q: What about the “inhibition of CB2” value (CB2) of the same compound?
A: Its value is “low micromolar inhibitor”.

Q: And the “effect on aggregation of Aβ” value (Aβ)?
A: The value was “does not affect the aggregation”.

Q: And the in vitro activity [10]?
A: Its in vitro activity is 5 to 15 µM.

Q: And the IC50 (HIV-2 protease; with Triton X-100)?
A: The IC50 was greater than 100 µM.

Q: And the IC50 (HIV-2 protease; without Triton X-100)?
A: The IC50 was 9 µM.

Q: And the “inhibition of Gcn5” value (HAT Gcn5)?
A: The value was “failed to inhibit”.

Q: What about the “activity versus G9a” value [11] of the same compound?
A: Its value is “failed to show any activity”.

Q: What about the “effect on phenotypic deficits” value (mutant CFTR (ΔF508 mice)) of the same compound?
A: The value was “ameliorated phenotypic deficits”.

Q: What about the IC50 (AmpC β-lactamase; with Triton X-100) of the same compound?
A: The IC50 was greater than 30 µM.

Q: What about the IC50 (AmpC β-lactamase; without Triton X-100) of the same compound?
A: Its IC50 is 12 µM.

Q: And the Papp (Caco-2 model system)?
A: The Papp was 3.18 × 10^–6 ± 1.08 × 10^–6 cm/s.

Q: And the peak serum level [12]?
A: The peak serum level was 57.6 ng/mL and 156 nmol/L.
